From ChEMBL document CHEMBL4390710, “Synthesis and biological evaluation of novel 4,7-dihydroxycoumarin derivatives as anticancer agents” (Bioorg Med Chem Lett, 2019)

Tests used:
A549 = test: Cytotoxicity against human A549 cells measured after 24 hrs by MTT assay; type: functional, cell-based
HeLa = test: Cytotoxicity against human HeLa cells measured after 24 hrs by MTT assay; type: functional, cell-based; parameters: unit not given here
SK-N-SH = test: Cytotoxicity against human SK-N-SH cells measured after 24 hrs by MTT assay; type: functional, cell-based
MCF7 [1] = test: Cytotoxicity against human MCF7 cells measured after 24 hrs by MTT assay; type: functional, cell-based
NRK-49F = test: Cytotoxicity against rat NRK-49F cells measured after 24 hrs by MTT assay; type: functional, cell-based
MCF7 [2] = test: Cell cycle arrest in human MCF7 cells assessed as accumulation at G1-phase at 4 uM measured after 24 hrs by propidium iodide staining based flow cytometry (reference value: 57%); type: functional
MCF7 [3] = test: Cell cycle arrest in human MCF7 cells assessed as accumulation at S-phase at 4 uM measured after 24 hrs by propidium iodide staining based flow cytometry (reference value: 14.9%); type: functional
MCF7 [4] = test: Cell cycle arrest in human MCF7 cells assessed as accumulation at G2/M-phase at 4 uM measured after 24 hrs by propidium iodide staining based flow cytometry (reference value: 13.8%); type: functional
MCF7 [5] = test: Cell cycle arrest in human MCF7 cells assessed as accumulation at subG0-phase at 4 uM measured after 24 hrs by propidium iodide staining based flow cytometry (reference value: 13.9%); type: functional
MCF7 [6] = test: Cell cycle arrest in human MCF7 cells assessed as accumulation at G2/M-phase at 4 uM measured after 24 hrs by propidium iodide staining based flow cytometry relative to control; type: functional
[7] = Inhibition of goat brain tubulin polymerization; parameters: species or system Capra hircus

IC50 [7] [µM]	Structure (SMILES)	IC50 (A549) [µmol]	IC50 (HeLa)	IC50 (SK-N-SH) [µmol]	IC50 (MCF7 [1]) [µmol]	IC50 (NRK-49F) [µmol]	Activity (MCF7 [2])	Activity (MCF7 [3]) [%]	Activity (MCF7 [4]) [%]	Activity (MCF7 [5])	fold change (FC) (MCF7 [6])
	COc1cc(/C=C(\C#N)C(=O)N/N=C(\C)c2c(O)c3ccc(O)cc3oc2=O)cc(OC)c1OC	15.32	18.46	14.61	11.34	55.34					
	COc1ccc(/C=C(\C#N)C(=O)N/N=C(\C)c2c(O)c3ccc(O)cc3oc2=O)cc1OC	14.32	13.52	21.53	14.35	45.28					
	C/C(=N\NC(=O)/C(C#N)=C/c1ccc(O)cc1)c1c(O)c2ccc(O)cc2oc1=O	6.23	6.02	8.12	7.32	61.31					
6.19	C/C(=N\NC(=O)/C(C#N)=C/c1ccc(N(C)C)cc1)c1c(O)c2ccc(O)cc2oc1=O	4.31	5.14	6.09	3.42	53.41	22.7 - 22.8%	22.6	45.3	8.5 - 10.6%	4
	COc1cc(/C=C(\C#N)C(=O)N/N=C(\C)c2c(O)c3ccc(O)cc3oc2=O)ccc1O	12.63	10.46	14.35	13.65	55.42					
	COc1ccc(/C=C(\C#N)C(=O)N/N=C(\C)c2c(O)c3ccc(O)cc3oc2=O)cc1	8.15	7.85	9.46	8.94	96.1					
	C/C(=N\NC(=O)/C(C#N)=C/c1ccc(Br)cc1)c1c(O)c2ccc(O)cc2oc1=O	11.43	10.56	12.05	9.85	49.64					
	COc1cccc2c1C(=O)c1c(O)c3c(c(O)c1C2=O)C[C@@](O)(C(=O)CO)C[C@@H]3O[C@H]1C[C@H](N)[C@H](O)[C@H](C)O1 [DOXORUBICIN]	6.22		6.42	9.86	24.22					
	C/C(=N\NC(=O)/C(C#N)=C/c1cccc([N+](=O)[O-])c1)c1c(O)c2ccc(O)cc2oc1=O	21.9	24.64	28.26	16.35	46.53					
	C/C(=N\NC(=O)/C(C#N)=C/c1cccc(Br)c1)c1c(O)c2ccc(O)cc2oc1=O	22.15	24.28	31.28	19.64	59.39					
	C/C(=N\NC(=O)/C(C#N)=C/c1ccccc1)c1c(O)c2ccc(O)cc2oc1=O	14.82	15.75	13.52	19.22	55.45					
	C/C(=N\NC(=O)/C(C#N)=C/c1ccccc1[N+](=O)[O-])c1c(O)c2ccc(O)cc2oc1=O	11.35	10.31	12.26	9.18	68.59					
	C/C(=N\NC(=O)/C(C#N)=C/c1ccccc1Cl)c1c(O)c2ccc(O)cc2oc1=O	14.23	11.78	14.02	8.88	55.89					
	C/C(=N\NC(=O)/C(C#N)=C/c1ccc([N+](=O)[O-])cc1)c1c(O)c2ccc(O)cc2oc1=O	9.64	8.36	10.26	8.2	43.22					
	COC(=O)Nc1nc2cc(C(=O)c3cccs3)ccc2[nH]1 [NOCODAZOLE]						21.6%	22	39.3	16.4 - 16.8%	
